Data: ChEMBL document CHEMBL3508140 (2016)

Columns and labels:
[1] = Recovery of 7-deoxy doxorubicin-aglycone following intravenous epirubicin at 1.5 mg.Kg-1 dose in man; assay type: ADME, organism-based, Plasma; details: human, in vivo
[2] = Detection of 7-deoxy doxorubicin-aglycone in plasma following single intravenous doxorubicin at 10 mg.Kg-1 dose in female mouse bearing colon tumor; assay type: ADME, organism-based, BALB/c; set-up: dose 10 mg.Kg-1, dosed compound id 2.46809e+06, dosed compound name Doxorubicin, gender F, regimen Single, route intravenous, sampling time 48 h; details: in vivo
[3] = AUC values (0-48 h) of 7-deoxydoxorubicin aglycone in tumor following single intravenous epirubicin at 10 mg.Kg-1 dose in female mouse bearing colon tumor; assay type: ADME, organism-based, BALB/c, Neoplasm; details: in vivo
[4] = AUC values (0-48 h) of 7-deoxydoxorubicin aglycone in tumor following single intravenous doxorubicin at 10 mg.Kg-1 dose in female mouse bearing colon tumor; assay type: ADME, organism-based, BALB/c, Neoplasm; set-up: time < 48 hr, dose 10 mg.Kg-1, dosed compound id 2.46809e+06, dosed compound name Doxorubicin, gender F, regimen Single, route intravenous, sampling time 48 h; details: in vivo
[5] = Recovery of 7-deoxy doxorubicin-aglycone following intraperitoneal epirubicin at 4 mg.Kg-1 dose in mouse; assay type: ADME, organism-based, CD-1, Plasma; details: in vivo, ip
[6] = Recovery of 7-deoxy doxorubicin-aglycone following intravenous epirubicin at 4 mg.Kg-1 dose in rat; assay type: ADME, organism-based, SD, Plasma; details: in vivo
[7] = AUC values (0-48 h) of 7-deoxydoxorubicin aglycone in heart following single intravenous epirubicin at 10 mg.Kg-1 dose in female mouse bearing colon tumor; assay type: ADME, organism-based, BALB/c; details: in vivo
[8] = Recovery of 7-deoxy doxorubicin-aglycone following intraperitoneal epirubicin at 4 mg.Kg-1 dose in hamster; assay type: ADME, organism-based, Cricetulus griseus, Plasma; details: chinese hamster, in vivo, ip
[9] = AUC values (0-48 h) of 7-deoxydoxorubicin aglycone in plasma following single intravenous doxorubicin at 10 mg.Kg-1 dose in female mouse bearing colon tumor; assay type: ADME, organism-based, BALB/c; set-up: time < 48 hr, dose 10 mg.Kg-1, dosed compound id 2.46809e+06, dosed compound name Doxorubicin, gender F, regimen Single, route intravenous, sampling time 48 h; details: in vivo
[10] = AUC values (0-48 h) of 7-deoxydoxorubicin aglycone in heart following single intravenous doxorubicin at 10 mg.Kg-1 dose in female mouse bearing colon tumor; assay type: ADME, organism-based, BALB/c; set-up: time < 48 hr, dose 10 mg.Kg-1, dosed compound id 2.46809e+06, dosed compound name Doxorubicin, gender F, regimen Single, route intravenous, sampling time 48 h; details: in vivo
[11] = Detection of 7-deoxy epirubicin-aglycone in plasma following single intravenous epirubicin at 10 mg.Kg-1 dose in female mouse bearing colon tumor; assay type: ADME, organism-based, BALB/c; details: in vivo
[12] = Detection of 7-deoxy epirubicin-aglycone in tumor following single intravenous epirubicin at 10 mg.Kg-1 dose in female mouse bearing colon tumor; assay type: ADME, organism-based, BALB/c, Neoplasm; details: in vivo
[13] = Detection of 7-deoxy doxorubicin-aglycone in tumor following single intravenous doxorubicin at 10 mg.Kg-1 dose in female mouse bearing colon tumor; assay type: ADME, organism-based, BALB/c, Neoplasm; set-up: dose 10 mg.Kg-1, dosed compound id 2.46809e+06, dosed compound name Doxorubicin, gender F, regimen Single, route intravenous, sampling time 48 h; details: in vivo
[14] = AUC values (0-48 h) of 7-deoxydoxorubicin aglycone in plasma following single intravenous epirubicin at 10 mg.Kg-1 dose in female mouse bearing colon tumor; assay type: ADME, organism-based, BALB/c; details: in vivo
[15] = Detection of 7-deoxy doxorubicin-aglycone in heart following single intravenous doxorubicin at 10 mg.Kg-1 dose in female mouse bearing colon tumor; assay type: ADME, organism-based, BALB/c; set-up: dose 10 mg.Kg-1, dosed compound id 2.46809e+06, dosed compound name Doxorubicin, gender F, regimen Single, route intravenous, sampling time 48 h; details: in vivo
[16] = Detection of 7-deoxy epirubicin-aglycone in heart following single intravenous epirubicin at 10 mg.Kg-1 dose in female mouse bearing colon tumor; assay type: ADME, organism-based, BALB/c; details: in vivo
[17] = Recovery of 7-deoxy doxorubicin-aglycone following intravenous epirubicin at 4 mg.Kg-1 dose in rabbit; assay type: ADME, organism-based, Oryctolagus cuniculus, New Zealand White, Plasma; details: in vivo
[18] = Recovery of doxorubicinol following intravenous epirubicin at 1.5 mg.Kg-1 dose in man; assay type: ADME, organism-based, Plasma; details: human, in vivo
[19] = Recovery of doxorubicinol following intraperitoneal epirubicin at 4 mg.Kg-1 dose in hamster; assay type: ADME, organism-based, Cricetulus griseus, Plasma; details: chinese hamster, in vivo, ip
[20] = Detection of doxorubicinol in tumor following single intravenous doxorubicin at 10 mg.Kg-1 dose in female mouse bearing colon tumor; assay type: ADME, organism-based, BALB/c, Neoplasm; set-up: dose 10 mg.Kg-1, dosed compound id 2.46809e+06, dosed compound name Doxorubicin, gender F, regimen Single, route intravenous, sampling time 48 h; details: in vivo
[21] = (§1) Urinary elimination of adriamycinol following intravenous bolus adriamycin at 10 mg.Kg-1 dose in rat; assay type: ADME, organism-based, SD, Urine; set-up: dose 10 mg.Kg-1, dosed compound id 2.46809e+06, dosed compound name Doxorubicin, route intravenous, sampling time 0-60 h; details: in vivo
[22] = Terminal half-life of doxorubicinol following intravenous doxorubicinol at 1.27 mg.Kg-1 dose in dog; assay type: ADME, organism-based, Canis lupus familiaris, Beagle, Plasma; set-up: dose 1.27 mg.Kg-1, dosed compound id 2.4681e+06, dosed compound name Doxorubicinol, route intravenous; details: in vivo
[23] = Detection of doxorubicinol in plasma following single intravenous doxorubicin at 10 mg.Kg-1 dose in female mouse bearing colon tumor; assay type: ADME, organism-based, BALB/c; set-up: dose 10 mg.Kg-1, dosed compound id 2.46809e+06, dosed compound name Doxorubicin, gender F, regimen Single, route intravenous, sampling time 48 h; details: in vivo
[24] = Recovery of doxorubicinol following intravenous epirubicin at 4 mg.Kg-1 dose in rat; assay type: ADME, organism-based, SD, Plasma; details: in vivo
[25] = AUC values (0-48 h) of doxorubicinol in tumor following single intravenous doxorubicin at 10 mg.Kg-1 dose in female mouse bearing colon tumor; assay type: ADME, organism-based, BALB/c, Neoplasm; set-up: time < 48 hr, dose 10 mg.Kg-1, dosed compound id 2.46809e+06, dosed compound name Doxorubicin, gender F, regimen Single, route intravenous, sampling time 48 h; details: in vivo
[26] = Recovery of doxorubicinol following intravenous epirubicin at 4 mg.Kg-1 dose in rabbit; assay type: ADME, organism-based, Oryctolagus cuniculus, New Zealand White, Plasma; details: in vivo
[27] = AUC values (0-48 h) of doxorubicinol in heart following single intravenous doxorubicin at 10 mg.Kg-1 dose in female mouse bearing colon tumor; assay type: ADME, organism-based, BALB/c; set-up: time < 48 hr, dose 10 mg.Kg-1, dosed compound id 2.46809e+06, dosed compound name Doxorubicin, gender F, regimen Single, route intravenous, sampling time 48 h; details: in vivo
[28] = as §1; assay type: ADME, organism-based, SD, Urine; set-up: dose 10 mg.Kg-1, dosed compound id 2.46809e+06, dosed compound name Doxorubicin, route intravenous, sampling time 0-6 h; details: in vivo
[29] = Recovery of doxorubicinol following intraperitoneal epirubicin at 4 mg.Kg-1 dose in mouse; assay type: ADME, organism-based, CD-1, Plasma; details: in vivo, ip
[30] = Detection of doxorubicinol in heart following single intravenous doxorubicin at 10 mg.Kg-1 dose in female mouse bearing colon tumor; assay type: ADME, organism-based, BALB/c; set-up: dose 10 mg.Kg-1, dosed compound id 2.46809e+06, dosed compound name Doxorubicin, gender F, regimen Single, route intravenous, sampling time 48 h; details: in vivo
[31] = as §1; assay type: ADME, organism-based, SD, Urine; set-up: dose 10 mg.Kg-1, dosed compound id 2.46809e+06, dosed compound name Doxorubicin, route intravenous, sampling time 0-24 h; details: in vivo
[32] = AUC values (0-48 h) of doxorubicinol in plasma following single intravenous doxorubicin at 10 mg.Kg-1 dose in female mouse bearing colon tumor; assay type: ADME, organism-based, BALB/c; set-up: time < 48 hr, dose 10 mg.Kg-1, dosed compound id 2.46809e+06, dosed compound name Doxorubicin, gender F, regimen Single, route intravenous, sampling time 48 h; details: in vivo

COc1cccc2c1C(=O)c1c(O)c3c(c(O)c1C2=O)C[C@@](O)(C(=O)CO)CC3
Compound recovery [1]: 14 10^-9M | Compound recovery [2]: OUTCOME = Observed | AUC [3]: 11 nmol·min/g | AUC [4]: 135 nmol·min/g | Compound recovery [5]: 0 10^-9M | Compound recovery [6]: 0 10^-9M | AUC [7]: 49 nmol·min/g | Compound recovery [8]: 1.3 10^-9M | AUC [9]: 4.1 nmol·min/mL | AUC [10]: 152 nmol·min/g | Compound recovery [11]: OUTCOME = Observed | Compound recovery [12]: OUTCOME = Observed | Compound recovery [13]: OUTCOME = Observed | AUC [14]: 1.6 nmol·min/mL | Compound recovery [15]: OUTCOME = Observed | Compound recovery [16]: OUTCOME = Observed | Compound recovery [17]: 0 10^-9M

COc1cccc2c1C(=O)c1c(O)c3c(c(O)c1C2=O)C[C@@](O)(C(O)CO)C[C@@H]3O[C@H]1C[C@H](N)[C@H](O)[C@H](C)O1 (some centres not stated)
Compound recovery [18]: 1 10^-9M | Compound recovery [19]: 0.1 10^-9M | Compound recovery [20]: OUTCOME = Not detected/not observed | Compound recovery [21]: 0.3% | t1/2 [22]: VALUE = Shorter than doxorubicin | Compound recovery [23]: OUTCOME = Observed | Compound recovery [24]: 0.6 10^-9M | AUC [25]: 0 nmol·min/g | Compound recovery [26]: 0.3 10^-9M | AUC [27]: 228 nmol·min/g | Compound recovery [28]: 0.22% | Compound recovery [29]: 0 10^-9M | Compound recovery [30]: OUTCOME = Observed | Compound recovery [31]: 0.26% | AUC [32]: 1.7 nmol·min/mL
